Reference: patent publication US20110218212A1, “PREDICTIVE MARKERS FOR EGFR INHIBITORS TREATMENT” (priority 2007, published 2011)
Read-outs that look alike come from different tables or passages of the source.

Legend:
[1] = test system: advanced NSCLC; assay: open-label predictive marker identification Phase II study of Tarceva monotherapy; type: in vivo, human; conditions: 264 enrolled patients, 150 mg/day oral
Protocol: Based on the experience from the BR.21 study, benefiting population was defined as either having objective response, or disease stabilization for ≧12 weeks. Clinical and microarray datasets were analyzed according to a pre-defined statistical plan.
The selection of this dose was based on pharmacokinetic parameters, as well as the safety and tolerability profile of this dose observed in Phase I, II and III trials in heavily pre-treated patients with advanced cancer. Drug levels seen in the plasma of patients with cancer receiving the 150 mg/day dose were consistently above the average plasma concentration of 500 ng/ml targeted for clinical efficacy.
This was an open-label, predictive marker identification Phase II study. The study was conducted in approximately 26 sites in about 12 countries. 264 patients with advanced NSCLC following failure of at least one prior chemotherapy regimen were enrolled over a 12 month period. […] Dose reductions were permitted based on tolerability to drug therapy. Clinical and laboratory parameters were assessed to evaluate disease control and toxicity. Treatment continued until disease progression, unacceptable toxicity or death.
The RECIST (Uni-dimensional Tumour Measurement) criteria were used to evaluate response. […]
A regular status check every 3 months was performed either by a patient's visit to the clinic or by telephone. All deaths were recorded. […]

[2] = test system: NSCLC; conditions: single agent, patients for whom standard therapy for advanced disease has failed, versus placebo; cited from earlier work
[3] = patients with cancer, 150 mg/day dose; compared with average plasma concentration targeted for clinical efficacy; cited from earlier work
[4] = test system: NSCLC; conditions: cited from earlier work
[5] = test system: NSCLC; conditions: second line therapy of NSCLC; cited from earlier work

For `C#Cc1cccc(Nc2ncnc3cc(OCCOC)c(OCCOC)cc23)c1` [Erlotinib], the median overall survival [1] is given as 7.6 (CI 7-9) months, the median progression-free survival [1] is given as 11.3 (CI 8-12) weeks and the “survival of NSCLC patients” value [2] is given as “significantly prolongs and improves the survival”. The “drug levels in plasma” value [3] was over 500 ng/mL.
In the case of `CC(=O)O[C@@]12CO[C@@H]1C[C@H](O)[C@@]1(C)C(=O)[C@H](O)C3=C(C)[C@@H](OC(=O)[C@H](O)[C@@H](NC(=O)OC(C)(C)C)c4ccccc4)C[C@@](O)([C@@H](OC(=O)c4ccccc4)[C@H]21)C3(C)C` [docetaxel], the survival ([4]; second line after cisplatin-based first-line regimens failed, all ages, ECOG performance status 0, 1 or 2) is listed as “improved survival” and the survival ([4]; third-line treatment or beyond) is listed as “no prolongation of survival”.
In the case of `Nc1nc2[nH]cc(CCc3ccc(C(=O)N[C@@H](CCC(=O)O)C(=O)O)cc3)c2c(=O)[nH]1` [pemetrexed], the “efficacy compared with docetaxel” value [5] is given as “clinically equivalent efficacy” and the “side effects compared with docetaxel” value [5] is given as “significantly fewer side effects”.
